# Measurements: ChEMBL document CHEMBL3286339, “Synthesis and in vivo SAR study of indolin-2-one-based multi-targeted inhibitors as potential anticancer agents” (Eur J Med Chem, 2014)
# Active and inactive are the calls of the source. The rule behind the calls is not given here.
# How the values were obtained:
# [1] = test system: Mus musculus; assay: Toxicity in BALB/c nude mouse xenografted with human HT-29 cells assessed as severe weight loss at 80 mg/kg/day administered qd; format: organism-based; settings: in vivo
# [2] = test system: Aorta; assay: Antiangiogenic activity in Sprague-Dawley rat aortic ring at 0.2 ug/ml after 6 days by inverted microscopic analysis; format: functional, tissue-based
# [3] = test system: Aorta; assay: Inhibition of micrangium generation in Sprague-Dawley rat aortic ring at 0.2 ug/ml after 6 days by inverted microscopic analysis; format: functional, tissue-based
# [4] = test system: HT-29; assay: Antitumor activity against human HT-29 cells xenografted in BALB/c nude mouse assessed as tumor growth inhibition at 80 mg/kg/day administered qd measured up to day 21 relative to control; format: functional
# [5] = test system: Mus musculus; assay: Toxicity in BALB/c nude mouse xenografted with human HT-29 cells assessed as weakness at 80 mg/kg/day administered qd; format: organism-based; settings: in vivo
# [6] = test system: Mus musculus; assay: Toxicity in BALB/c nude mouse xenografted with human HT-29 cells assessed as lethargic behavior at 80 mg/kg/day administered qd; format: organism-based; settings: in vivo
# [7] = test system: Mus musculus; assay: Toxicity in BALB/c nude mouse xenografted with human HT-29 cells assessed as development of diarrhea at 80 mg/kg/day administered qd; format: organism-based; settings: in vivo
# [8] = test system: Mus musculus; assay: Toxicity in BALB/c nude mouse xenografted with human HT-29 cells assessed as severe weight loss at 80 mg/kg/day administered qd measured after 6 days; format: organism-based; settings: in vivo, 144 h
# [9] = test system: Mus musculus; assay: Toxicity in BALB/c nude mouse xenografted with human HT-29 cells assessed as mortality at 80 mg/kg/day administered qd measured after 6 days; format: organism-based; settings: in vivo, 144 h
# [10] = test system: Mus musculus; assay: Toxicity in BALB/c nude mouse xenografted with human HT-29 cells assessed as hematuria at 80 mg/kg/day administered qd measured up to day 21; format: organism-based; settings: in vivo
# [11] = test system: Mus musculus; assay: Toxicity in BALB/c nude mouse xenografted with human HT-29 cells assessed as bloody stool at 80 mg/kg/day administered qd measured up to day 21; format: organism-based; settings: in vivo
# [12] = test system: Mus musculus; assay: Toxicity in BALB/c nude mouse xenografted with human HT-29 cells assessed as weight loss at 80 mg/kg/day administered qd measured up to day 21; format: organism-based; settings: in vivo
# [13] = test system: Mus musculus; assay: Toxicity in BALB/c nude mouse xenografted with human HT-29 cells assessed as severe weight loss at 80 mg/kg/day administered qd measured after 3 days; format: organism-based; settings: in vivo, 72 h
# [14] = test system: Mus musculus; assay: Toxicity in BALB/c nude mouse xenografted with human HT-29 cells assessed as mortality at 80 mg/kg/day administered qd measured on day 12; format: organism-based; settings: in vivo
# [15] = test system: Mus musculus; assay: Toxicity in BALB/c nude mouse xenografted with human NCI-H460 cells assessed as hematuria at 40 mg/kg/day administered qd; format: organism-based; settings: in vivo
# [16] = test system: Mus musculus; assay: Toxicity in BALB/c nude mouse xenografted with human NCI-H460 cells assessed as bloody stool at 40 mg/kg/day administered qd; format: organism-based; settings: in vivo
# [17] = test system: Mus musculus; assay: Toxicity in BALB/c nude mouse xenografted with human NCI-H460 cells assessed as severe weight loss at 40 mg/kg/day administered qd; format: organism-based; settings: in vivo
# [18] = test system: NCI-H460; assay: Antitumor activity against human NCI-H460 cells xenografted in BALB/c nude mouse assessed as tumor growth inhibition at 40 mg/kg/day administered qd measured up to day 21 relative to control; format: functional
# [19] = test system: Mus musculus; assay: Toxicity in BALB/c nude mouse xenografted with human HT-29 cells assessed as mortality at 80 mg/kg/day administered qd measured on day 15; format: organism-based; settings: in vivo
# [20] = test system: Mus musculus; assay: Toxicity in BALB/c nude mouse xenografted with human HT-29 cells assessed as severe weight loss at 80 mg/kg/day administered qd measured after 12 to 15 days; format: organism-based; settings: in vivo
# [21] = test system: Mus musculus; assay: Toxicity in BALB/c nude mouse xenografted with human HT-29 cells assessed as mortality at 80 mg/kg/day administered qd measured on day 21; format: organism-based; settings: in vivo
# [22] = Antiproliferative activity against human LO2 cells after 72 hrs by MTT assay; format: cell-based; settings: L02, 72 h
# [23] = test system: Mus musculus; assay: Toxicity in BALB/c nude mouse xenografted with human HT-29 cells assessed as change in body weight at 80 mg/kg/day administered qd relative to control; format: organism-based; settings: in vivo
# [24] = test system: Mus musculus; assay: Toxicity in BALB/c nude mouse xenografted with human NCI-H460 cells assessed as change in body weight at 40 mg/kg/day administered qd relative to control; format: organism-based; settings: in vivo
# [25] = Antiproliferative activity against human MV411 cells after 48 hrs by MTT assay; format: functional, cell-based; settings: MV4-11, 48 h
# [26] = test system: TT; assay: Antiproliferative activity against human TT cells pretreated for 72 hrs followed by compound-washout measured after 72 hrs by MTT assay; format: functional, cell-based
# [27] = test system: NCI-H460; assay: Antiproliferative activity against human NCI-H460 cells after 72 hrs by MTT assay; format: functional, cell-based; settings: NCI-H460, 72 h
# [28] = test system: NCI-H526; assay: Antiproliferative activity against human NCI-H526 cells after 72 hrs by MTT assay; format: functional, cell-based; settings: NCI-H526, 72 h
# [29] = Antiproliferative activity against human NCI-H3122 cells after 72 hrs by MTT assay; format: functional, cell-based; settings: NCI-H3122, 72 h
# [30] = Antiproliferative activity against human Bel7402 cells after 72 hrs by MTT assay; format: functional, cell-based; settings: Bel-7402, 72 h
# [31] = Antiproliferative activity against human HK2 cells after 72 hrs by MTT assay; format: cell-based; settings: HK-2, 72 h
# [32] = test system: Mus musculus; assay: Toxicity in BALB/c nude mouse xenografted with human NCI-H460 cells assessed as weakness at 40 mg/kg/day administered qd; format: organism-based; settings: in vivo
# [33] = test system: Mus musculus; assay: Toxicity in BALB/c nude mouse xenografted with human NCI-H460 cells assessed as lethargic behavior at 40 mg/kg/day administered qd; format: organism-based; settings: in vivo
# [34] = test system: Mus musculus; assay: Toxicity in BALB/c nude mouse xenografted with human NCI-H460 cells assessed as severe weight loss at 40 mg/kg/day administered qd measured after 9 days; format: organism-based; settings: in vivo, 216 h
# [35] = test system: Mus musculus; assay: Toxicity in BALB/c nude mouse xenografted with human NCI-H460 cells assessed as bloody stool at 40 mg/kg/day administered qd measured after 9 days; format: organism-based; settings: in vivo, 216 h
# [36] = test system: Mus musculus; assay: Toxicity in BALB/c nude mouse xenografted with human NCI-H460 cells assessed as mortality at 40 mg/kg/day administered qd measured on day 15; format: organism-based; settings: in vivo
# [37] = test system: Mus musculus; assay: Toxicity in BALB/c nude mouse xenografted with human HT-29 cells assessed as severe weight loss at 80 mg/kg/day administered qd measured after 9 days; format: organism-based; settings: in vivo, 216 h
compound,measurement,setting,value
CCN(CC)CCC(=O)Nc1c(C)[nH]c(/C=C2\C(=O)Nc3ccc(Br)cc32)c1C,Activity,[1],Toxic
same,inhibition,[2],Active
same,inhibition,[3],Active
same,Activity,[4],Active
Cc1[nH]c(/C=C2\C(=O)Nc3ccc(F)cc32)c(C)c1C(=O)N1CCC(N(C)C)CC1,inhibition,[2],Active
same,inhibition,[3],Active
same,Activity,[4],Active
same,Activity,[5],Toxic
same,Activity,[6],Toxic
same,Activity,[7],Toxic
same,Activity,[8],Toxic
same,Activity,[9],Toxic
Cc1[nH]c(/C=C2\C(=O)Nc3ccc(F)cc32)c(C)c1NC(=O)CCN1CCOCC1,Activity,[10],Non-toxic
same,Activity,[11],Non-toxic
same,inhibition,[2],Active
same,inhibition,[3],Active
same,Activity,[4],inactive
Cc1[nH]c(/C=C2\C(=O)Nc3ccc(F)cc32)c(C)c1C(=O)N1CCN(C)CC1,Activity,[10],Non-toxic
same,Activity,[11],Non-toxic
same,Activity,[12],Non-toxic
same,inhibition,[2],Active
same,inhibition,[3],Active
same,Activity,[4],Active
CCN(CC)CCC(=O)Nc1c(C)[nH]c(/C=C2\C(=O)Nc3ccc(Cl)cc32)c1C,Activity,[13],Toxic
same,Activity,[14],Toxic
same,inhibition,[2],Active
same,inhibition,[3],Active
Cc1[nH]c(/C=C2\C(=O)Nc3ccc(F)cc32)c(C)c1NC(=O)CN1CCCCC1,Activity,[15],Non-toxic
same,Activity,[16],Non-toxic
same,Activity,[17],Non-toxic
same,inhibition,[2],Active
same,inhibition,[3],Active
same,TGI,[18],inactive
CCN(CC)CCC(=O)Nc1c(C)[nH]c(/C=C2\C(=O)Nc3ccc(F)cc32)c1C,Activity,[19],Toxic
same,inhibition,[2],Active
same,inhibition,[3],Active
same,Activity,[4],Active
same,Activity,[8],Toxic
CCN1CCN(CCC(=O)Nc2c(C)[nH]c(/C=C3\C(=O)Nc4ccc(F)cc43)c2C)CC1,Activity,[10],Non-toxic
same,Activity,[11],Non-toxic
same,Activity,[1],Non-toxic
same,Activity,[15],Non-toxic
same,Activity,[16],Non-toxic
same,Activity,[17],Non-toxic
same,inhibition,[2],Active
same,inhibition,[3],Active
same,Activity,[4],Active
same,TGI,[18],Active
Cc1[nH]c(/C=C2\C(=O)Nc3ccc(F)cc32)c(C)c1C(=O)N1CCN(CCO)CC1,inhibition,[2],Active
same,inhibition,[3],Active
same,Activity,[4],inactive
CCN(CC)CCNC(=O)c1c(C)[nH]c(/C=C2\C(=O)Nc3ccc(F)cc32)c1C [SUNITINIB],Activity,[20],Toxic
same,Activity,[21],Toxic
same,Activity,[4],Active
same,Activity,[4]; record 2,88.9%
same,IC50,[22],19900 nM
same,TGI,[18],Active
same,Activity,[23],-24.1%
same,Activity,[24],12.3%
same,IC50,[25],3 nM
same,IC50,[26],40 nM
same,IC50,[27],4310 nM
same,IC50,[28],1010 nM
same,IC50,[29],830 nM
same,IC50,[30],2670 nM
same,IC50,[31],5850 nM
Cc1[nH]c(/C=C2\C(=O)Nc3ccc(F)cc32)c(C)c1NC(=O)/C=C/CN(C)C,inhibition,[2],Active
same,inhibition,[3],Active
same,Activity,[4],inactive
CCN1CCN(C(=O)c2c(C)[nH]c(/C=C3\C(=O)Nc4ccc(F)cc43)c2C)CC1,Activity,[10],Non-toxic
same,Activity,[11],Non-toxic
same,Activity,[12],Non-toxic
same,inhibition,[2],Active
same,inhibition,[3],Active
same,Activity,[4],Active
Cc1[nH]c(/C=C2\C(=O)Nc3ccc(F)cc32)c(C)c1NC(=O)CCN1CCCC1,Activity,[15],Non-toxic
same,Activity,[16],Non-toxic
same,Activity,[17],Non-toxic
same,inhibition,[2],Active
same,inhibition,[3],Active
same,TGI,[18],Active
Cc1[nH]c(/C=C2\C(=O)Nc3ccc(F)cc32)c(C)c1NC(=O)CN1CCN(C)CC1,Activity,[32],Toxic
same,Activity,[33],Toxic
same,Activity,[34],Toxic
same,Activity,[35],Toxic
same,Activity,[36],Toxic
same,inhibition,[2],Active
same,inhibition,[3],Active
Cc1[nH]c(/C=C2\C(=O)Nc3ccc(F)cc32)c(C)c1NC(=O)CCN1CCCCC1,Activity,[10],Non-toxic
same,Activity,[11],Non-toxic
same,Activity,[1],Non-toxic
same,Activity,[15],Non-toxic
same,Activity,[16],Non-toxic
same,Activity,[17],Non-toxic
same,inhibition,[2],Active
same,inhibition,[3],Active
same,Activity,[4],Active
same,TGI,[18],Active
Cc1[nH]c(/C=C2\C(=O)Nc3ccc(F)cc32)c(C)c1NC(=O)CCCN(C)C,inhibition,[2],Active
same,inhibition,[3],Active
same,Activity,[4],Active
Cc1[nH]c(/C=C2\C(=O)Nc3ccc(F)cc32)c(C)c1NC(=O)CCN(C)C,inhibition,[2],Active
same,inhibition,[3],Active
same,Activity,[4],Active
CCN(CC)C1CCN(C(=O)c2c(C)[nH]c(/C=C3\C(=O)Nc4ccc(F)cc43)c2C)CC1,Activity,[37],Toxic
same,Activity,[19],Toxic
same,inhibition,[2],Active
same,inhibition,[3],Active
same,Activity,[4],Active
same,Activity,[5],Toxic
same,Activity,[6],Toxic
same,Activity,[7],Toxic
same,Activity,[8],Toxic
